The source of these data is PubChem BioAssay (NCI).

The structures appear in SMILES notation.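 Five concentrations, 48 hours, 96-well plates. TGI: total growth inhibition.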

Some test systems named below: SR leukemia; ACHN renal; SK-OV-3 ovarian; OVCAR-4 ovarian; SNB-19 CNS; MOLT-4 leukemia; NCI-H226 lung; NCI-H23 lung; HL-60(TB) leukemia; MALME-3M melanoma; OVCAR-5 ovarian; CCRF-CEM leukemia; NCI-H522 lung; MDA-N; PC-3 prostate; MDA-MB-231 breast; KM12 colon; HCC-2998 colon; NCI/ADR-RES ovarian; SF-295 CNS.
What all share (test): growth of human tumour cells (NCI), 48 h

As to `CCC/C=C/c1cc2c(cc1O)CC[C@@H]1[C@@H]2CC[C@]2(C)[C@@H](O)CC[C@@H]12`, the TGI in the test with SR leukemia is 45.7 µM; in the test on ACHN renal it was 34.2 µM; with SK-OV-3 ovarian, 63.2 µM; with OVCAR-4 ovarian it was 44.9 µM; with SNB-19 CNS it was > 56.6 µM; in the test with MOLT-4 leukemia it was 42.5 µM. The TGI amounted to 45.8 µM with NCI-H226 lung; 35.9 µM with NCI-H23 lung; 27.3 µM in the test with HL-60(TB) leukemia; 30.3 µM in the test on MALME-3M melanoma; 35.1 µM in the test with OVCAR-5 ovarian; 32.8 µM in the test with CCRF-CEM leukemia. In addition, the TGI came to 35.5 µM with NCI-H522 lung; 28.3 µM in the test with MDA-N; 31 µM in the test on PC-3 prostate; 33.7 µM in the test on MDA-MB-231 breast; 32.6 µM in the test with KM12 colon; 38.8 µM in the test with HCC-2998 colon. The TGI was found to be 44.1 µM in the test on NCI/ADR-RES ovarian and 34.9 µM in the test on SF-295 CNS.

As for `O=C1CN(C(=O)C2CCCN2C(=O)C2CCCN2)C(=O)CN1` (stereo not given), the TGI in the test with SR leukemia, in the test on ACHN renal, with SK-OV-3 ovarian, with OVCAR-4 ovarian, with SNB-19 CNS and in the test with MOLT-4 leukemia was > 100 µM throughout. The TGI in the test on NCI-H226 lung, in the test on NCI-H23 lung, in the test with HL-60(TB) leukemia, in the test on MALME-3M melanoma, in the test with OVCAR-5 ovarian and in the test with CCRF-CEM leukemia was > 100 µM throughout. Besides, the TGI with NCI-H522 lung, in the test on MDA-N, in the test on PC-3 prostate, in the test on MDA-MB-231 breast, with KM12 colon and in the test with HCC-2998 colon was > 100 µM in each case. For the same compound, the TGI with NCI/ADR-RES ovarian and with SF-295 CNS was > 100 µM throughout.

As to `CN(C)/N=C(/CC(O)(C(F)(F)F)C(F)(F)F)c1ccc([N+](=O)[O-])cc1`, the TGI in the test on SR leukemia, with ACHN renal, in the test on SK-OV-3 ovarian, in the test on OVCAR-4 ovarian, in the test with SNB-19 CNS and in the test with MOLT-4 leukemia was > 100 µM in each case. Further, the TGI with NCI-H226 lung, in the test with NCI-H23 lung, in the test with HL-60(TB) leukemia, in the test with MALME-3M melanoma, in the test on OVCAR-5 ovarian and in the test with CCRF-CEM leukemia was > 100 µM throughout. Further, the TGI in the test on NCI-H522 lung, with MDA-N, with PC-3 prostate, in the test with MDA-MB-231 breast, in the test on KM12 colon and with HCC-2998 colon was > 100 µM in each case. The TGI with NCI/ADR-RES ovarian and in the test on SF-295 CNS was > 100 µM each time.

Turning to `Cc1c(C)c(C)n(C2OC(CO)C(O)C(O)C2O)c(=S)c1C#N` (stereo not given), the TGI in the test on SR leukemia, with ACHN renal, in the test on SK-OV-3 ovarian, in the test with OVCAR-4 ovarian, in the test on SNB-19 CNS and with MOLT-4 leukemia was > 100 µM throughout. In addition, the TGI with NCI-H226 lung, in the test on NCI-H23 lung, in the test with HL-60(TB) leukemia, with MALME-3M melanoma, with OVCAR-5 ovarian and in the test with CCRF-CEM leukemia was > 100 µM throughout. Also, the TGI with NCI-H522 lung, in the test with MDA-N, with PC-3 prostate, with MDA-MB-231 breast, with KM12 colon and in the test with HCC-2998 colon was > 100 µM each time. The TGI with NCI/ADR-RES ovarian and in the test on SF-295 CNS was > 100 µM in each case.

For the compound `CCCCCCCCCCCCN(CC(O)C(O)C(OC1OC(CO)C(O)C(O)C1O)C(O)CO)C(=O)CCCCCCCCCCC` (stereo not given), the TGI in the test on SR leukemia turned out to be 57.8 µM; in the test with ACHN renal it was 31 µM; with SK-OV-3 ovarian, 52.6 µM; in the test on OVCAR-4 ovarian, 44.5 µM; in the test on SNB-19 CNS it was 35.4 µM; with MOLT-4 leukemia it was 50.1 µM. For the same compound, the TGI with NCI-H226 lung was 44.6 µM; in the test with NCI-H23 lung it was 46.2 µM; with HL-60(TB) leukemia, > 100 µM; in the test with MALME-3M melanoma it was 36 µM; in the test on OVCAR-5 ovarian it was > 100 µM; in the test on CCRF-CEM leukemia it was 65.1 µM. Further, the TGI came to 52.9 µM in the test on NCI-H522 lung; 38.2 µM in the test with MDA-N; 52.9 µM in the test with PC-3 prostate; 42.7 µM in the test with MDA-MB-231 breast; 36.7 µM with KM12 colon; 32.6 µM in the test on HCC-2998 colon. The TGI is 49.7 µM in the test on NCI/ADR-RES ovarian and 37.3 µM in the test on SF-295 CNS.

Consider `CC(C)NC(NC(C)C)=C(S(=O)(=O)C(F)(F)C(F)(F)C(F)(F)C(F)(F)F)S(=O)(=O)C(F)(F)C(F)(F)C(F)(F)C(F)(F)F`, for which the TGI with SR leukemia, in the test on ACHN renal, in the test with SK-OV-3 ovarian, in the test with OVCAR-4 ovarian, in the test with SNB-19 CNS and in the test on MOLT-4 leukemia was > 100 µM throughout. Further, the TGI with NCI-H226 lung, with NCI-H23 lung, in the test on HL-60(TB) leukemia, in the test with MALME-3M melanoma, in the test with OVCAR-5 ovarian and in the test with CCRF-CEM leukemia was > 100 µM throughout. Besides, the TGI in the test on NCI-H522 lung, in the test with MDA-N, in the test on PC-3 prostate, in the test on MDA-MB-231 breast, with KM12 colon and in the test with HCC-2998 colon was > 100 µM throughout. Besides, the TGI in the test on NCI/ADR-RES ovarian and in the test on SF-295 CNS was > 100 µM in each case.

As for `COc1nc(N=P(c2ccccc2)(c2ccccc2)c2ccccc2)cc(=O)[nH]1`, the TGI in the test on SR leukemia, with ACHN renal, in the test with SK-OV-3 ovarian, in the test on OVCAR-4 ovarian, in the test with SNB-19 CNS and in the test on MOLT-4 leukemia was > 100 µM throughout. Moreover, the TGI with NCI-H226 lung, with NCI-H23 lung, in the test on HL-60(TB) leukemia, in the test on MALME-3M melanoma, with OVCAR-5 ovarian and with CCRF-CEM leukemia was > 100 µM each time. The TGI in the test with NCI-H522 lung, with MDA-N, in the test on PC-3 prostate, in the test with MDA-MB-231 breast, in the test with KM12 colon and in the test on HCC-2998 colon was > 100 µM in each case. In addition, the TGI in the test with NCI/ADR-RES ovarian and in the test on SF-295 CNS was > 100 µM in each case.
